Laboratory results published in US20030032580A1, “Use of agonists or antagonists of the 5-HT7 receptor to treat disorders of the bladder” (Synaptic Pharmaceutical Corporation, priority 1999, published 2003).

Experiments:
[1] = molecular target: T1, 5-HT2B receptor (second phase of the concentration-effect curve to 5-CT in the rat bladder) (Rattus norvegicus, UniProt P30994); test: Electrically stimulated rat bladder strips: second (low potency) phase of the concentration-effect curve to 5-CT; type: cell-based; conditions: pindolol 1 μM, tropisetron 10 μM, ketanserin 0.1 μM
T1 construct: from tissue; host or cells: rat urinary bladder detrusor strips

[2] = molecular target: T2, 5-HT7 receptor (first phase of the concentration-effect curve to 5-CT in the rat bladder) (Rattus norvegicus, UniProt P32305); test: Electrically stimulated rat bladder strips: first (high potency) phase of the concentration-effect curve to 5-CT; type: cell-based; conditions: for effect on high potency responses to 5-CT: pindolol 1 μM, tropisetron 10 μM, ketanserin 0.1 μM
T2 construct: from tissue; host or cells: rat urinary bladder detrusor strips

[3] = molecular target: cloned rat 5-HT7 receptor (Rattus norvegicus, UniProt P32305); conditions: references 2 and 3; cited from earlier work
[4] = test system: rat urinary bladder strips; test: Isolated rat urinary bladder strips: agonist-evoked increase of electrically evoked, nerve-mediated contractions; type: cell-based; conditions: for effect on the magnitude of electrically evoked contractions: agonist alone, electrically stimulated rat bladder strips; for ability to modify the effects of 5-HT: 10 μM
Text: 5-HT receptors in the rat urinary bladder which, when activated by serotonin agonists, cause increases in the magnitude of nerve-mediated contractions, were identified and characterized pharmacologically using isolated strips of rat bladder.
Urinary bladders were isolated from female CD rats (Charles Rivers, 250-300 g). The bladder base (lower third) was removed and the detrusor region was opened into a flat sheet by cutting from the basal opening to the apex. This was cut into quadrants, each of which was attached on its lateral edges by two tissue clips and suspended in a 5 ml tissue bath containing Krebs' solution (pH 7.4 37° C.) of the following composition (mM): NaCl (118), KCl (4.9), NaHCO3 (25), MgCl2 (1.2), NaHPO4 (1.0), CaCl2 (2.5), glucose (11) and aerated continuously with 95% O2/5% CO2. Except in initial experiments, prazosin (0.1 μM), idazoxan (0.3 μM), and indomethacin (10 μM) were included routinely in the buffer to block α1- and α2-adrenoceptors and to prevent the formation of prostaglandins, respectively. After allowing 30 min for equilibration, bladder strips were placed under 1.0 g resting tension, readjusted 6 times over the next 30 min. For most experiments contractile responses were evoked by transmural electrical impulses delivered by Grass S-88 (Grass Instruments, City, Mass.) stimulators (single pulses, 0.1 Hz, 1 ms pulse width, 90 V) through a pair of stainless steel electrodes. Contractions were measured using isometric force transducers (Radnotti Instruments, Monrovia, Calif.) and recorded using MacLab software (AD Instruments, Milford, Mass.).
Bladder strips, in Krebs' solution containing antagonist or vehicle, were stimulated at supramaximal voltage until contractions of consistent magnitude were obtained (ca. 30 min). During this period the Krebs' solution was exchanged at 15 min intervals. Cumulative concentration-effect curves were then constructed by administering 5-carboxamidotryptamine (5-CT) or other agonists in 0.5 log M increments. Responses are expressed as a percent of control, and represent agonist-evoked increases in the magnitude of the electrically evoked contractions relative to that in the absence of agonist (“control”, taken as 100%). […] Therefore, only a single agonist concentration-effect curve was constructed in each tissue.
Concentration-effect curves were fitted (Kaleidagraph, Synergy Software, PCS Inc., Reading PA) to 1-site or 2-site models of agonism as represented by the following equations:
(1-site): Effect=Emax[A]^n/[A]^n+EC50^n;
(2-site): Effect=(Emax^a[A]/[A]+EC50^a+(Emax^b[A]/[A]+EC50^b),
where Emax represents the maximum effect of the agonist, [A] is the agonist molar concentration, EC50 is the concentration of agonist eliciting half its maximum effect, n is the slope factor, and the italicized superscripts (a and b) denote values for the first and second phase of the biphasic curve. Antagonist pKB values were determined using the formula described by Furchgott (1972): pKB=log (agonist concentration ratio −1/antagonist concentration [M]. In some instances, pKB values were determined according to the method of Arunlakshana and Schild (1959), in which the slope of the Schild plot was constrained to unity. Concentration ratios for Schild analyses were calculated from mean EC50 values for the agonist in the absence and presence of the antagonist in experiments from n different animals.

[5] = molecular target: cloned human 5-HT7 receptor (Homo sapiens, UniProt P34969); conditions: cloned human 5-HT7 receptor, references 1 and 4; cited from earlier work
Chain of cloned human 5-HT7 receptor (P34969 1-445 isoform P34969-2): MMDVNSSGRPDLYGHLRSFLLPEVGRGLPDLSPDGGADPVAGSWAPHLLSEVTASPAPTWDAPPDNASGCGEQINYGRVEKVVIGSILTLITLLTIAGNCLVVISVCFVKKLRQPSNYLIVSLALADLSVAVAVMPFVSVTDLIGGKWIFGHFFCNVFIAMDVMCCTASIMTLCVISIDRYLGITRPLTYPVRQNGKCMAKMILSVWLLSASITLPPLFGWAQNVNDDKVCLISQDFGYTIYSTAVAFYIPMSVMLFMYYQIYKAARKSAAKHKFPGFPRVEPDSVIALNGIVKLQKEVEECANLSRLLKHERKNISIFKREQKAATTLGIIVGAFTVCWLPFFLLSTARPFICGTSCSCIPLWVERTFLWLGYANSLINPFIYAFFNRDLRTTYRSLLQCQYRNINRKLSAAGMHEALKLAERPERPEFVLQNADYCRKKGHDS

T1 sequence (P30994 whole entry): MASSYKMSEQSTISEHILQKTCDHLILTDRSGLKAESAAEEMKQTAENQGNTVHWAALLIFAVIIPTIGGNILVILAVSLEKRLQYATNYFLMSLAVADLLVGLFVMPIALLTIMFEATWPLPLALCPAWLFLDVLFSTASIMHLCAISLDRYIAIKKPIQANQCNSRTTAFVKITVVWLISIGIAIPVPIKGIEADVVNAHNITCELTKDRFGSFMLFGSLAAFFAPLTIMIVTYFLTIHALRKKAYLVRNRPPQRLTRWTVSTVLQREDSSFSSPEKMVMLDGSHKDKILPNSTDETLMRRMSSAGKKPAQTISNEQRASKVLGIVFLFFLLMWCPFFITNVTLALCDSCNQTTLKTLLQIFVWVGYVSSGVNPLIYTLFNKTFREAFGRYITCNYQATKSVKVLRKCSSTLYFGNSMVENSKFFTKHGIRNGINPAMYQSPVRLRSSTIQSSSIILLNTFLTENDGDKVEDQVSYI
T2 sequence (P32305 whole entry): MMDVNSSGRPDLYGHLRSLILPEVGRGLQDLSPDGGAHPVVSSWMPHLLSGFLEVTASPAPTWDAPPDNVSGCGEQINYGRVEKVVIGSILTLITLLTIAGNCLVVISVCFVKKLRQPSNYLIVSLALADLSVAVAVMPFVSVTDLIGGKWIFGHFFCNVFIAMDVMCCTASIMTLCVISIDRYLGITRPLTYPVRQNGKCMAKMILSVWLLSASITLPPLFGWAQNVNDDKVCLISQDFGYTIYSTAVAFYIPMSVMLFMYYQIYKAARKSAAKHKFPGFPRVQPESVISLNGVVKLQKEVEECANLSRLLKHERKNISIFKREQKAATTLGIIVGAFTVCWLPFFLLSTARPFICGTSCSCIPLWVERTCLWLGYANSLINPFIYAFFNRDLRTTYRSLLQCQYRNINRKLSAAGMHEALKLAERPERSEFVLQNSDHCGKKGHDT
Chain of cloned rat 5-HT7 receptor (P32305 whole entry): as above

Row | SMILES | effect on low potency responses to 5-CT [1] | effect on high potency responses to 5-CT [2] | pK1 [3] | effect on the magnitude of electrically evoked contractions [4] | other results
1 | CC(C)NCC(O)COc1cccc2[nH]ccc12 (single isomer, unassigned) [pindolol] | not affected | not affected | <6 |  | 
2 | NCCc1c[nH]c2ccc(O)cc12 [5-HT, 5-hydroxytryptamine] |  |  |  | marked increases | 
3 | COc1ccc2[nH]cc(CCN)c2c1 [5-MeOT] |  |  |  | mimicked | 
4 | CCCN(CCC)C1CCc2cccc(O)c2C1 (stereo not shown) [8-OH-DPAT] |  |  |  | inactive | ability to modify the effects of 5-HT [4]: failure
5 | CC(C)n1c(=O)n(C(=O)NC2CC3CCC(C2)N3C)c2ccccc21 (stereo not shown) [BIMU-8] |  |  |  | inactive | ability to modify the effects of 5-HT [4]: failure
6 | CCCN(CCC)CCc1c[nH]c2ccc(C(N)=O)cc12 [DP-5-CT] |  |  |  | mimicked | 
7 | CC(C)n1cc2c3c(cccc31)C1C[C@@H](C(=O)N[C@H]3CCC[C@H]3O)CN(C)[C@@H]1C2 (stereo partly shown) [LY215840] |  |  |  |  | pKB ([2]; inhibition of the first phase of the concentration-effect curve to 5-CT in the rat bladder, antagonists tested in the presence of 0.1 μM 1-NP): 8.2; pK1 [5]: 7.8
8 | O=C(c1ccc(F)cc1)C1CCN(CCn2c(=O)[nH]c3ccccc3c2=O)CC1 [ketanserin] | not affected | not affected | 5.6 |  | 
9 | CN1[C@@H]2CC[C@H]1C[C@@H](OC(=O)c1c[nH]c3ccccc13)C2 [tropisetron] | not affected | not affected | <4.5 |  | 
10 | CC(N)Cc1c[nH]c2ccc(O)cc12 (stereo not drawn) [α-Me-5-HT, α-methyl-5-hydroxytryptamine] |  |  |  | mimicked | 
